Measurements published in patent US12048683B2, “Kaempferol analog-containing composition” (OTSUKA PHARMACEUTICAL CO., LTD., priority 2017, dated 2024).

How the values were obtained:
healthy adult males = test: Incremental loading exercise test with bicycle; assay type: in vivo, human; conditions: compared with no intake of kaempferol
Protocol: For 25 healthy adult males, 3 dosages of kaempferol-containing cookie-shaped foods (containing 2.5 mg, 10 mg, or 25 mg of kaempferol, respectively) and a placebo cookie-shaped food (kaempferol-free) were used as test foods, and a once-a-day ingestion for consecutive 8 days were repeated four times by the crossover method. 3 hours after a test food ingestion on day 1 (Single ingestion) and on day 8 (Consecutive ingestion), an incremental loading exercise with bicycle was performed while sampling the exhaled gas to determine the oxygen consumption. The Heart rate and the rating of perceived exertion were monitored during exercise. Dynamic/kinetic visual acuity was measured before and after the exercise. Details of each endpoint are given below. Oxygen consumption (VO2) (mL/min/kg) was calculated from the difference between the amount of oxygen in the inhaled gas (atmosphere) and the amount of oxygen in the exhaled gas. When a weight of the pedal approaches a subject's limit during incremental loading exercise with bicycle, a heart rate (HR) is maximized. The increase in heart rate from the resting heart rate to the maximum heart rate was defined as 100% of exercise intensity, and the oxygen consumption (VO2) was plotted at each exercise intensity. That is, for example, an exercise intensity of 50% HR is calculated by the following equation: 100×(x−Resting heart rate)/(Maximum heart rate−Resting heart rate)=50% HR, and the oxygen consumption (VO2) in which the heart rate is the “x” means “oxygen consumption (VO2) at an exercise intensity of 50% HR”. Oxygen consumption efficiency was calculated by the following equation. Oxygen consumption efficiency (VO2/VE)=oxygen consumption/ventilation The oxygen uptake efficiency slope (OUES) was calculated using the ventilation and VO2 every 1 min from the beginning of the incremental loading exercise. Specifically, a graph of linearity was obtained by plotting “logarithmic value of ventilation (VE)” on the horizontal axis and “VO2” on the vertical axis, and the slope of the linear function graph was defined as OUES. For details, see Non-Patent Document 5. Exercise intensity (% HR) and rating of perceived exertion (RPE) at the oxygen consumption (VO2) of 14 mL/min/kg and 24.5 mL/min/kg in incremental loading exercise (the levels of stair climbing and jogging, respectively) were evaluated. The calculation methods for oxygen consumption (VO2) and exercise intensity (% HR) are the same as those described above. The perceived exertion was rated by the subject according to the following table at 1-minute intervals from the beginning of the incremental loading exercise, and the scales rated by each subject were averaged to give the rating of perceived exertion (RPE).

healthy male adults = test: Effect on performance in 400 m run; assay type: in vivo, human; conditions: single ingestion, 10 mg aglycone equivalent, 3 hours before run; placebo group −0.11 seconds
Protocol: A two-group and two-phase crossover study (single ingestion) was conducted for 13 healthy male adults. In the study, a kaempferol-containing capsule-shaped food (SNR 14) wherein the aglycone equivalent value is 10 mg; and a placebo capsule-shaped food: Placebo (kaempferol free) were used as test foods. Three hours after taking the test food, the subjects sprinted 400 m, and sprinted 400 m again after a 90 minute interval. Respiratory rate and heart rate were monitored during the sprint. The expiratory mouth pressure was measured by the maximum mouth pressure method, before and after the 400 m runs, using an electronic spirometer, autospyro (Minato Medical Science Co., Ltd.). The subjects inhaled to the limit after three deep breaths in a standing position and then exhaled with full force into the mouthpiece for measurement while preventing air leakage from the nose to determine expiratory mouth pressure.

[1] = at oxygen consumption (VO2) of 14 and 24.5 mL/min/kg (stair climbing and jogging levels), single and consecutive ingestion
[2] = single ingestion and consecutive ingestion

O=c1c(O)c(-c2ccc(O)cc2)oc2cc(O)cc(O)c12 [kaempferol]
oxygen consumption (VO2) (healthy adult males; at all exercise intensities (50%, 60%, 70%, 80%, 90%, and 100% HR), single ingestion and consecutive ingestion (8 days), 2.5, 10 or 25 mg kaempferol cookie): increased | exercise intensity (% HR) (healthy adult males; [1]): decreased | rating of perceived exertion (RPE) (healthy adult males; [1]): decreased | maximum exercise load (Pedal Weight (watt)) (healthy adult males; [2]): increased | maximum oxygen consumption (VO2peak) (healthy adult males; [2]): increased | oxygen consumption efficiency (VO2/VE) (healthy adult males; [2]): increased | oxygen uptake efficiency slope (OUES) (healthy adult males; [2]): increased | mean time change between the 1st and 2nd 400 m runs (healthy male adults): -0.77 s
